Patent US20240199640A1, “NEGATIVE ALLOSTERIC MODULATORS OF METABOTROPIC GLUTAMATE RECEPTOR 2” (priority 2021, published 2024)
Read-outs that look alike come from different tables or passages of the source.

What was measured:
group II mGlu receptors = details: cited from earlier work
human mGlu3 = target: T1, human mGlu3 (Homo sapiens, UniProt Q14832); test: mGlu GIRK cell-based thallium flux assay, human mGlu3; details: HEK-293 cells co-expressing human mGlu3 and GIRK; EC80 glutamate; Tl flux
T1 construct: expressed in transfected cells; host or cells: HEK-293
Protocol: Human embryonic kidney (HEK-293) cell lines stably co-expressing human or rat mGlu2 and G protein-coupled inwardly rectifying potassium (GIRK) channels, or human mGlu3 and GIRK, were used for in vitro evaluation of compound activity in thallium flux assay using a fluorescent thallium indicator dye.
The day before the assay, GIRK cells co-expressing human mGlu3, human or rat mGlu2, as described above, were plated in black-walled, clear-bottomed, amine-coated 384-well plates at a density of 15,000 cells/20 μL/well in the assay medium (glutamine-depleted basal DMEM supplemented with 10% dialyzed FBS, 20 mM HEPES, 1 mM sodium pyruvate). Cells were incubated at 37° C. in the presence of 5% CO2. The next day, assay buffer (Hanks balanced salt solution, 20 mM HEPES, 4.16 mM sodium bicarbonate, pH 7.2) was prepared to dilute compounds and Thallos AM fluorescent dye solution. The 2× Thallos dye solution (final concentration 0.34 μM to the cells) was prepared by mixing the dye stock (2.97 mM in DMSO) to 1:1 with 10% pluronic acid before adding to the assay buffer. Cells were washed with assay buffer using a microplate washer to remove the medium, resulting in 20 μL of buffer remaining in each well. Immediately, 20 μL of 2× Thallos dye solution was added to cells, and incubated for one hour at 25° C. During the cell dye loading incubation period, a 10-point concentration serial dilution of compound was created from a 10 mM DMSO compound stock by performing a 1:3 serial dilution in DMSO using the Bravo liquid handler. The 2× compound plate was generated by transferring 0.24 μL of the diluted compound in each well to a daughter plate using an Echo acoustic liquid handler. This is further diluted in 40 μL assay buffer, resulting in a range from 30 μM to 1.5 nM final concentration in the assay. The agonist plate (5×) was prepared to include EC80 glutamate concentration (a concentration to elicit 80% of a maximally effective glutamate concentration) in thallium buffer (125 mM […], 1 mM magnesium sulfate, 1.8 mM calcium sulfate, 5 mM glucose, 10 mM HEPES, pH 7.2, 12.5 mM thallium sulfate).
(§1) After dye-loading, cell plates were washed with assay buffer to remove excess extracellular dye using a microplate washer, resulting in 20 μL of buffer remaining in each well. After a ten-minute equilibration period, cell, compound and agonist plates were loaded into a Hamamatsu μCell kinetic imaging plate reader equipped with liquid handler to monitor fluorescence changes at 480 nm excitation and 540 nm emission settings. Briefly, after collection of baseline fluorescence, 20 μL of compound was added and incubated for two minutes and twenty seconds. This is immediately followed by adding 10 μL of glutamate-thallium buffer to the wells containing compound. The fluorescent signal was monitored an additional 2.5 minutes after the glutamate addition. Multiple reference wells containing no compound received either no glutamate (for a baseline reference), […] glutamate, or ECmax glutamate (for normalization to maximum response). Fluorescence was measured throughout the experiment at a frequency of 1 measurement per every 2 seconds before the glutamate addition and a frequency of 1 measurement per every 1 second after the glutamate addition. Each compound concentration series occurred one time in each plate, and replicates from two or three plates were used in each experimental run. Thallium solutions were handled and disposed of according to guidelines from the Vanderbilt University Chemical Safety department.
Data were normalized using a static ratio function (F/F0) by dividing every fluorescent measurement by the initial fluorescent value for the corresponding well. The increase in signal resulting from the glutamate/thallium addition of the second add was measured by determining the slope from 3 seconds to 13 seconds after the addition. […]

human mGlu2 = target: T2, human mGlu2 (Homo sapiens, UniProt Q14416); test: mGlu GIRK cell-based thallium flux assay, human mGlu2; details: HEK-293 cells co-expressing human mGlu2 and GIRK; EC80 glutamate; Tl flux
T2 construct: expressed in transfected cells; host or cells: HEK-293
Protocol: The day before the assay, GIRK cells co-expressing human mGlu3, human or rat mGlu2, as described above, were plated in black-walled, clear-bottomed, amine-coated 384-well plates at a density of 15,000 cells/20 μL/well in the assay medium (glutamine-depleted basal DMEM supplemented with 10% dialyzed FBS, 20 mM HEPES, 1 mM sodium pyruvate). Cells were incubated at 37° C. in the presence of 5% CO2. […] Cells were washed with assay buffer using a microplate washer to remove the medium, resulting in 20 μL of buffer remaining in each well. Immediately, 20 μL of 2× Thallos dye solution was added to cells, and incubated for one hour at 25° C. During the cell dye loading incubation period, a 10-point concentration serial dilution of compound was created from a 10 mM DMSO compound stock by performing a 1:3 serial dilution in DMSO using the Bravo liquid handler. The 2× compound plate was generated by transferring 0.24 μL of the diluted compound in each well to a daughter plate using an Echo acoustic liquid handler.
as §1
Data were normalized using a static ratio function (F/F0) by dividing every fluorescent measurement by the initial fluorescent value for the corresponding well. The increase in signal resulting from the glutamate/thallium addition of the second add was measured by determining the slope from 3 seconds to 13 seconds after the addition. The average of all baseline slopes (no compound, no glutamate) was determined and this value was subtracted from all other slope values. The average of all ECmax slopes was determined and this value was used to normalize the baseline-corrected slopes to a percent max value (% Emax). The % Emax values for each compound series were plotted versus the log of the concentration and fit to a 4-parameter logistical equation with no fixed parameters.
Potency is reported as the IC50 resulting from the curve fit.

mice = details: treated mice; cited from earlier work
[1] = tested on: Aβ-induced neurodegeneration; details: cited from earlier work
Helpless (H) mice = details: cited from earlier work; for activity in the tail suspension test: Helpless (H) mice
mouse = details: normal animals; cited from earlier work
[2] = tested on: central mGlu2 and mGlu3 receptors; details: in vivo; cited from earlier work
C57Bl6/J mice = details: cited from earlier work
rat = details: normal animals; cited from earlier work

T1 sequence (Q14832 23-879): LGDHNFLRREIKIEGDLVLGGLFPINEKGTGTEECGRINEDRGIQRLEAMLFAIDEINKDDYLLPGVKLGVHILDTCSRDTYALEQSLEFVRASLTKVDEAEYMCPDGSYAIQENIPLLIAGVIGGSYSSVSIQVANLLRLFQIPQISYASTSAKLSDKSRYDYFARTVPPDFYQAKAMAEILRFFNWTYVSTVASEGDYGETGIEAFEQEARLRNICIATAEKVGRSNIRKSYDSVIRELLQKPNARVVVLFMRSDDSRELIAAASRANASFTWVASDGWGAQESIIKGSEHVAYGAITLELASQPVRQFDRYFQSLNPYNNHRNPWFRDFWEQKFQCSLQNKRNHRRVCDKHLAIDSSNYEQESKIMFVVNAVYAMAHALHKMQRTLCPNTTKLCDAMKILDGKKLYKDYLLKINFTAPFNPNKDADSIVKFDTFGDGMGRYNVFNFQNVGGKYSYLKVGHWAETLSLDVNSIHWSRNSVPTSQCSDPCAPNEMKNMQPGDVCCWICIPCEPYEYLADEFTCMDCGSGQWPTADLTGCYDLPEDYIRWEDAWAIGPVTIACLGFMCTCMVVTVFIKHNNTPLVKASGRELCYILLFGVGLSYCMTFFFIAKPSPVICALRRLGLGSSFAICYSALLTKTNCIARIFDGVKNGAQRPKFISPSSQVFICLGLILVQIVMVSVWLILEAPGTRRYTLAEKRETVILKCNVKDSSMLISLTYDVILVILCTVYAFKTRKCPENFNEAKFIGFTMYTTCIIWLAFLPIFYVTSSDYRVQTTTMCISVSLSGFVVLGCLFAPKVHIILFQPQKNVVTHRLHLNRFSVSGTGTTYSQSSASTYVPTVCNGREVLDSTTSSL
T2 sequence (Q14416 19-872): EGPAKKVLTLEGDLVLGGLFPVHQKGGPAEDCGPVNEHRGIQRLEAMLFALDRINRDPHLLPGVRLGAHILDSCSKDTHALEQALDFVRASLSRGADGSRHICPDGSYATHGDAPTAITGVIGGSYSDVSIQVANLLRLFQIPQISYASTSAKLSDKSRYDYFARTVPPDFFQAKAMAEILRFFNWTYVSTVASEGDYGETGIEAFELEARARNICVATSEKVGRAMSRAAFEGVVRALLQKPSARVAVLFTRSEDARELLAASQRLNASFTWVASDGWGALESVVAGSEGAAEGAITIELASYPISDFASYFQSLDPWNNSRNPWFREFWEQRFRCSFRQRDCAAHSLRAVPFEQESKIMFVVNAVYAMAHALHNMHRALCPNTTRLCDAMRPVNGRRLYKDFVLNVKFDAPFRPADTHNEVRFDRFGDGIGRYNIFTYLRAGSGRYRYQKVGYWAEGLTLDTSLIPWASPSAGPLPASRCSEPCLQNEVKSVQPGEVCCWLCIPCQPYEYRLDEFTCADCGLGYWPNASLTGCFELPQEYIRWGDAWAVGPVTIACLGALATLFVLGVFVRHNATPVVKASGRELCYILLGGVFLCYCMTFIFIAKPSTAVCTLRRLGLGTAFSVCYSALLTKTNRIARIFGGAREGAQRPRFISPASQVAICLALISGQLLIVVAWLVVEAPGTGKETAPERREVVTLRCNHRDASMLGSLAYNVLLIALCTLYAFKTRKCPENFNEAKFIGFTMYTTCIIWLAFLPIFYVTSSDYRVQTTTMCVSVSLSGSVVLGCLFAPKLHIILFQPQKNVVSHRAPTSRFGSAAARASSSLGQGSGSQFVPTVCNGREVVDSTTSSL

SMILES | Human mGlu3 GIRK IC50 (nM) (human mGlu3) | IC50 (human mGlu2) [nM] | other results
N[C@]1(C(=O)O)[C@H]2[C@@H](C[C@H]1OCc1ccc(Cl)c(Cl)c1)[C@]2(F)C(=O)O [BCI-632] | – | – | time for which brain concentration was sufficient to inhibit group II mGlu receptors (group II mGlu receptors; active metabolite after once-daily oral dosing of prodrug BCI-838): 22 h
CCCCCCCOC(=O)[C@@]1(F)[C@@H]2C[C@@H](OCc3ccc(Cl)c(Cl)c3)[C@@](N)(C(=O)O)[C@@H]21 [BCI-838] | – | – | levels of monomeric and oAβ peptides in the hippocampus and cortex (group II mGlu receptors; three months of treatment, two AD mouse models): decreased; Dutch APP transgene-associated learning and memory impairment (group II mGlu receptors; three months of treatment): reversed; anxiolytic effects (group II mGlu receptors; three months of treatment): anxiolytic effects; hippocampal progenitor cell proliferation (group II mGlu receptors; wild-type and Alzheimer's diseased mice, 3 months): stimulated
COc1ccc(-c2cc3c(cc2OCc2ccn(C)n2)CNC3=O)c(F)c1 [Compound 11, 6-(2-fluoro-4-methoxyphenyl)-5-((1-methyl-1H-pyrazol-3-yl)methoxy)isoindolin-1-one] | Inactive | 131 | –
COc1ccc(-c2cc3c(cc2OCc2ccn(C)n2)CNC3=O)cc1 [Compound 12, 6-(4-methoxyphenyl)-5-((1-methyl-1H-pyrazol-3-yl)methoxy)isoindolin-1-one] | Inactive | 170 | –
Cn1ccc(COc2cc3c(cc2-c2ccccc2F)C(=O)NC3)n1 [Compound 13, 6-(2-fluorophenyl)-5-((1-methyl-1H-pyrazol-3-yl)methoxy)isoindolin-1-one] | Inactive | 214 | –
Cn1ccc(COc2cc3c(cc2-c2ccc(C#N)cc2)C(=O)NC3)n1 [Compound 14, 4-(6-((1-methyl-1H-pyrazol-3-yl)methoxy)-3-oxoisoindolin-5-yl)benzonitrile] | Inactive | 242 | –
COc1ccc(-c2cc3c(cc2OCc2csc(C)n2)CNC3=O)c(F)c1 [Compound 15, 6-(2-fluoro-4-methoxyphenyl)-5-((2-methylthiazol-4-yl)methoxy)isoindolin-1-one] | Inactive | 360 | –
Cc1nc(COc2cc3c(cc2-c2ccccc2F)C(=O)NC3)cs1 [Compound 16, 6-(2-fluorophenyl)-5-((2-methylthiazol-4-yl)methoxy)isoindolin-1-one] | Inactive | 357 | –
O=C1NCc2cc(OCc3ccn(C(F)F)n3)c(-c3ccc(F)cc3)cc21 [Compound 17, 5-((1-(difluoromethyl)-1H-pyrazol-3-yl)methoxy)-6-(4-fluorophenyl)isoindolin-1-one] | Inactive | 292 | –
Cc1nc(COc2cc3c(cc2-c2ccc(F)cc2)C(=O)NC3)cs1 [Compound 18, 6-(4-fluorophenyl)-5-((2-methylthiazol-4-yl)methoxy)isoindolin-1-one] | Inactive | 363 | –
COc1ccc(-c2cc3c(cc2OCc2csc(C)n2)CNC3=O)cc1 [Compound 19, 6-(4-methoxyphenyl)-5-((2-methylthiazol-4-yl)methoxy)isoindolin-1-one] | Inactive | 119 | –
Cc1nc(COc2cc3c(cc2-c2ccccc2C#N)C(=O)NC3)cs1 [Compound 20, 2-(6-((2-methylthiazol-4-yl)methoxy)-3-oxoisoindolin-5-yl)benzonitrile] | Inactive | 189 | –
[2H]C([2H])([2H])Oc1ccccc1-c1cc2c(cc1OCc1csc(C)n1)CNC2=O [Compound 21, 6-(2-(methoxy-d3)phenyl)-5-((2-methylthiazol-4-yl)methoxy)isoindolin-1-one] | Inactive | 1320 | –
[2H]C([2H])([2H])Oc1ccc(-c2cc3c(cc2OCc2csc(C)n2)CNC3=O)cc1 [Compound 22, 6-(4-(methoxy-d3)phenyl)-5-((2-methylthiazol-4-yl)methoxy)isoindolin-1-one] | Inactive | 115 | –
[2H]C([2H])([2H])Oc1ccccc1-c1cc2c(cc1OCc1ccn(C)n1)CNC2=O [Compound 23, 6-(2-(methoxy-d3)phenyl)-5-((1-methyl-1H-pyrazol-3-yl)methoxy)isoindolin-1-one] | Inactive | 7720 | –
[2H]C([2H])([2H])Oc1ccc(-c2cc3c(cc2OCc2ccn(C)n2)CNC3=O)cc1 [Compound 24, 6-(4-(methoxy-d3)phenyl)-5-((1-methyl-1H-pyrazol-3-yl)methoxy)isoindolin-1-one] | Inactive | 99.5 | –
COc1ccc(-c2cc3c(cc2OCc2ccn(C(F)F)n2)CNC3=O)c(F)c1 [Compound 25, 5-((1-(difluoromethyl)-1H-pyrazol-3-yl)methoxy)-6-(2-fluoro-4-methoxyphenyl)isoindolin-1-one] | Inactive | 40 | –
N[C@](CC1c2ccccc2Oc2ccccc21)(C(=O)O)[C@H]1C[C@@H]1C(=O)O [LY341495] | – | – | marble-burying behavior (mice): significantly reduce; Aβ-induced neurodegeneration [1]: prevented; activity in the tail suspension test (Helpless (H) mice): active; antidepressant effect in helpless mice (Helpless (H) mice; acute administration): potent antidepressant effect; Antidepressant-like effects in mouse tail-suspension test (mouse): Antidepressant-like effects; hypolocomotor effect of mGlu2/3 agonist (LY379268) [2]: achieved the same result; immobility time in the FST (C57Bl6/J mice): dose-dependently reduced; Antidepressant-like effects in rat forced swim test (rat): Antidepressant-like effects
CCS(=O)(=O)N(Cc1cccnc1)c1cccc(-c2ccc(C#N)cc2)c1 [LY566332] | – | – | Aβ-induced neurodegeneration [1]: amplified
Cc1cc(-c2cccc(C3=Nc4cc(C)c(C(F)(F)F)cc4NC(=O)C3)c2)cc(C)n1 [RO4491533] | – | – | activity in the tail suspension test (Helpless (H) mice): active; hypolocomotor effect of mGlu2/3 agonist (LY379268) [2]: reversed; immobility time in the FST (C57Bl6/J mice): dose-dependently reduced
CNCCC(Oc1ccc(C(F)(F)F)cc1)c1ccccc1 (stereo not drawn) [fluoxetine] | – | – | antidepressant effect in helpless mice (Helpless (H) mice; chronic (21 days) treatment): full antidepressant effect
